{"source": "patent US20220047720A1", "about": "“CONJUGATES AND NANOPARTICLES OF HYALURONIC ACID AND EPIGALLOCATECHIN-3-O-GALLATE AND USES THEREOF” (Agency for Science, Technology and Research, priority 2018, published 2022)", "key": {"[1]": {"test_system": "NB4 cells", "test": "Quantitative evaluation of differentiation in AML cells (CD11b, CD14, CD15 by flow cytometry)", "assay_type": "cell-based, human", "conditions": "three days, ATRA, PMA (100 ng/mL), A3D8 (0.6 μg/mL), EGCG (38 μM), HA equivalent", "method": "AML cells were seeded at 1×10^5 cells in 1 mL per well in 24-well plates and were incubated for 2 h with 5% CO2 at 37° C. […] ATRA (1 mM), PMA (100 ng/mL) and A3D8 (0.6 μg/mL) were included as positive controls. After three days of incubation, the cells were harvested and examined for signs of differentiation by assessing cell surface antigen expression. To label the cell surface antigens, the cells were suspended in PBS (pH 7.4) containing 0.2% (v/v) BSA and then incubated at 4° C. for 30 min with mouse anti-human FITC-conjugated CD11b, Cy7-conjugated CD14 and Cy5-conjugated CD15 antibodies (2 μg/mL each). Mouse IgG1 isotype antibody was used as control. After that, the cells were washed three times with PBS containing 0.2% (v/v) BSA and the level of antibody binding was determined by flow cytometry using a fluorescence-activated cell sorter BD LSR II (BD Biosciences, Calif.). Each measurement comprised of acquisition of at least 1×10^4 cells and the analyses were considered as informative when adequate numbers of events (>100) were collected in the enumeration gates. To quantify the percentage of antigen-expressing cells, the cells were defined to be positive for the antigens if they fell within the gating region pre-set to include <2% of untreated control cells."}, "[2]": {"test_system": "MV-4-11 cells", "test": "In vitro anti-leukemic activity, CellTiter-Glo assay, and median-effect combination index", "assay_type": "cell-based", "conditions": "3 days", "method": "(§3) MOLM-14 and MV-4-11 cells (ATCC, USA) were maintained in RPMI 1640 media supplemented with 10% (v/v) fetal bovine serum (FBS) and 1% (v/v) penicillin/streptomycin. The cells seeded on white-walled 96-well plates (1×10^4 cells per well) were incubated in 100 μL of 10% FBS-supplemented media containing either sunitinib- or sorafenib-loaded nanoparticles and the respective free drugs at various concentrations. […] After treatment for 3 days, 100 μL of the CellTiter-Glo assay reagent was added to each well of the plates. After incubation for 10 min at 25° C., cellular luminescence was measured using a Tecan Infinite 200 microplate reader (Tecan Group, Switzerland). Results were expressed as percentages of the luminescence signal of analysed cells relative to untreated controls."}, "[3]": {"test": "Dispersion stability in water (appearance)", "assay_type": "physicochemical", "conditions": "suspended in water at the same sorafenib concentration", "text": "Based on the drug loading capacity and particle size, three compositions were selected for in vitro anti-leukemic activity studies (in Example 3) and were named as Sora-NP-1 to Sora-NP-3 (Table 2). Among them, Sora-NP-1 had the smallest particle size with the lowest sorafenib loading capacity. […] This provides indirect evidence that sorafenib molecules were stably encapsulated in the interior of Sora-NP. The excellent dispersion stability of Sora-NP compositions would be beneficial for their clinical applications."}, "[4]": {"test_system": "MOLM-14 cells", "test": "In vitro anti-leukemic activity, CellTiter-Glo assay, and median-effect combination index", "conditions": "3 days", "method": "as §3"}, "[5]": {"test_system": "patient-derived AML cells named Leu 14", "test": "Patient-derived AML xenograft mouse model", "assay_type": "in vivo", "experimental": "All animal experiments were performed according to the protocols approved by IACUC at the Biological Resource Centre, Singapore. A pre-clinical patient-derived liquid xenograft mouse model was established based on a previous report (Z. Her, et al., J. Hematol. Oncol. 2017, 10, 162). Briefly, NOD-scid II2rg^−/− (NSG) newborn pups were sub-lethally irradiated at 1 Gy and engrafted with patient-derived AML cells named Leu 14. When the proportion of human CD45^+ cells in peripheral blood reached around 10-15%, the mice were randomly divided into 3 groups. The first group received intravenous injections of isotonic dextrose solution containing Sora-NP-1 at a sorafenib dose of 0.4 mg kg^−1 twice weekly for 4 weeks. For comparison, another group of mice received intravenous injections of free sorafenib solution prepared in saline-DMSO mixture (95:5, v/v) at an equivalent dose. […] At selected time points, the proportion of human CD45^+ cells in the peripheral blood, spleen and bone marrow was examined by flow cytometry analysis using a LSR II flow cytometer (BD Biosciences)."}, "[6]": {"test_system": "HEK293 cells", "test": "In vitro cell viability assay (CellTiter-Glo), normal cells", "assay_type": "cell-based, human", "conditions": "72 h", "experimental": "(§1) The human AML cell line HL60, human embryonic kidney cell line HEK293 and primary human umbilical vein endothelial (HUVEC) cells were purchased from the American Type Culture Collection (ATCC). The human AML cell lines NB4 was kindly donated by the Cancer Science Institute, Singapore. All the AML cells were cultured in RPMI 1640 medium supplemented with 10% fetal bovine serum (FBS) and maintained in density of 2×10^5 to 1×10^6 cells/mL. HEK293 cells were cultured in DMEM medium supplemented with 10% FBS while HUVEC cells were maintained in EBM™-2 Endothelial Cell Growth Basal Medium supplemented with endothelial cell growth medium SingleQuots™ supplements and growth factors. All the cells were maintained in a humid incubator with 5% CO2 at 37° C.\n(§2) All cells (HL60, NB4, HEK293 and HUVEC cells) were seeded at 1×10^4 cells per […] per well in 96-well plates. […] After drug treatment, the cell viability was evaluated using the CellTiter-Glo™ Luminescent Cell Viability Assay Kit (Promega, Madison, Wis.) following the manufacturer's instructions. The luminescence from each well was measured using a Tecan Infinite microplate reader (Tecan Group, Switzerland). The final cell viability values were expressed as percentages derived from the luminescence intensity from the treated cells relative to untreated cells. […]"}, "[7]": {"test_system": "HUVEC cells", "test": "In vitro cell viability assay (CellTiter-Glo), normal cells", "assay_type": "cell-based, human", "conditions": "72 h", "experimental": "as §1, §2"}, "[8]": {"conditions": "equivalent sorafenib concentrations"}, "[9]": {"conditions": "equivalent sunitinib concentrations"}}, "note": "Where a name gives a salt, the structure may show the parent alone."}
{"compound": "CC1=C(/C=C/C(C)=C/C=C/C(C)=C/C(=O)O)C(C)(C)CCC1", "note": "[ATRA, all-trans retinoic acid]", "values": [{"measurement": "differentiation marker expression", "setting": "[1]", "result": "greatest increase in the three antigen expression levels and the proportion of antigen-expressing cells"}]}
{"compound": "CNC(=O)c1cc(Oc2ccc(NC(=O)Nc3ccc(Cl)c(C(F)(F)F)c3)cc2)ccn1", "note": "[free sorafenib, Sorafenib tosylate]", "values": [{"measurement": "order of effectiveness (anti-leukemic activity)", "setting": "[2]; [8]", "result": "Sora-NP-1>Sora-NP-2>Sora-NP-3>free sorafenib"}, {"measurement": "Appearance of dispersion in water", "setting": "[3]", "result": "heavily flocculated and eventually precipitated"}, {"measurement": "cells eradicated / reduction of the cell viability", "setting": "[4]; 200 nM sorafenib", "result": "~14", "unit": "%"}, {"measurement": "order of effectiveness (anti-leukemic activity)", "setting": "[4]; [8]", "result": "Sora-NP-1>Sora-NP-2>Sora-NP-3>free sorafenib"}, {"measurement": "AML cell proliferation in the peripheral blood (human CD45+ cells)", "setting": "[5]; i.v., sorafenib dose 0.4 mg kg^−1 twice weekly for 4 weeks, versus untreated control", "result": "only a slight delay of AML progression"}, {"measurement": "time at which treated mice started to die", "setting": "[5]; sorafenib dose 0.4 mg kg^−1", "result": "12 to 14", "unit": "days"}]}
{"compound": "CCN(CC)CCNC(=O)c1c(C)[nH]c(/C=C2\\C(=O)Nc3ccc(F)cc32)c1C", "note": "[free sunitinib, Sunitinib malate]", "values": [{"measurement": "order of effectiveness (anti-leukemic activity)", "setting": "[2]; [9]", "result": "Suni-NP-1>Suni-NP-2>free sunitinib>Suni-NP-3>Suni-NP-4"}, {"measurement": "order of effectiveness (anti-leukemic activity)", "setting": "[4]; [9]", "result": "Suni-NP-1>Suni-NP-2>free sunitinib>Suni-NP-3>Suni-NP-4"}]}
{"compound": "Epigallocatechin-3-gallate [EGCG]", "values": [{"measurement": "EGCG equivalent concentration with greater toxicity than HA-EGCG (B)", "setting": "[6]", "result": 76, "unit": "µM"}, {"measurement": "EGCG equivalent concentration range with greater toxicity than HA-EGCG (B)", "setting": "[7]", "result": "15 to 76", "unit": "µM"}]}
